According to patent publication US20070117182A1, “Nucleic acids conferring transcriptional responsiveness on the RANKL gene promoter and uses thereof” (Wisconsin Alumni Research Foundation, priority 2005, published 2007):

Experiments:
D5 fragment in MC-3T3-E1 = test: pRL-D5/TK-luc reporter in MC-3T3-E1 cells; type: cell-based; settings: osteoblast mouse cell line MC-3T3-E1, which does not produce RANKL
Cyp24 = test: RT-PCR of Cyp24 control gene in treated ST2 cells; type: cell-based, mouse; settings: up to 24 hours
Method: (§1) FIG. 2. Induction of RANKL in ST2 cells by hormones and cytokines. ST2 cells were treated with the agents indicated for periods up to 24 hours. Total RNA was isolated and subjected to RT-PCR using a primer set to mouse RANKL and beta-actin. Positive vitamin D target control genes include Cyp24 and osteopontin (OPN).
(§2) The inventors first established a model in which RANKL is both induced in response to 1,25(OH)2D3, PTH (forskolin) and oncostatin M (OSM), and is capable of supporting osteoclast formation when co-cultured with bone marrow monocyte- or spleen cell-derived osteoclast precursors. While a number of cell types express RANKL and induce osteoclastogenesis, the historical literature strongly supports mouse ST2 cells in this capacity, prompting the inventors to focus on this stromal/preosteoblastic line for initial studies. […] Each of these components is known to both induce RANKL expression and promote osteoclast formation as well. […] Indeed, GC effects are widely observed. […] The ability of GCs to enhance osteoclast formation in coculture assays in the presence of 1,25(OH)2D3, however, is likely due also to its coordinate ability to suppress OPG.

osteopontin (OPN) = test: RT-PCR of osteopontin control gene in treated ST2 cells; type: cell-based, mouse; settings: up to 24 hours
Method: as §1, §2

RANKL = test: RT-PCR of RANKL transcripts in treated ST2 cells; type: cell-based, mouse; settings: treated up to 24 hours, agent alone, vs beta-actin controls
Method: as §1, §2

mouse RANKL VDRE = test: RANKL VDRE in TK promoter, luciferase reporter in ST2 cells; type: cell-based
Source text: FIG. 8. The mouse RANKL VDRE is inducible by 1,25(OH)2D3. The mouse RANKL VDRE (sequence seen in FIG. 7) was cloned into the TK promoter, transfected into ST2 cells and evaluated for transcriptional regulation by 1,25(OH)2D3. A 10 to 15-fold induction mediated by the RL VDRE is observed. A similar induction is observed in the context of the RL minimal promoter. Data are the average of triplicate determinations, SEM.
ChIP data are of inherent low resolution, making it difficult to identify the specific sequence to which the VDR/RXR heterodimer binds within the RL-CCL. 1,25(OH)2D3-inducibility of the RL-CCL DNA fragment, however, provides the opportunity to precisely map the location of the VDRE using mutagenesis. The inventors therefore subjected the RL-CCL DNA fragment to 5′ deletion analysis using PCR and prepared a series of fragments of the RL-CCL with increasingly fore-shortened 5′ termini as illustrated in FIG. 7a. These RANKL gene fragments were similarly cloned into the pTK-luc vector and their activities together with the wildtype D5 fragment examined in response to 1,25(OH)2D3, glucocorticoids and the combination following transfection into ST2 cells. […] As well, this region of the RL-CCL also contains a number of consensus GR binding half-sites, and at least one consensus GRE duplex site.

[1] = system: D5 fragment in COS7 cells; test: pRL-D5/TK-luc reporter in COS7 cells with VDR expression vector; type: cell-based, mouse
Method: FIG. 6. Transcriptional activity of the D5 regions of the RANKL gene in the context of the TK promoter. Sequence surrounding the D5 region (1072 bp) was cloned into the pTK-luciferase vector and termed pTK-RL(D5). […] Cells were harvested after 24 hours and luciferase activity assessed. B) ST2 cells were transfected as in A above but without the VDR expression vector and evaluated as in A. C) COS-7 cells were transfected and evaluated as in A above. Luciferase was normalized using beta-gal activity. Data represent the mean of triplicate determinations (SEM). The pTK-luc control vector was unresponsive to any of the inducers (see FIG. 9). *, p<0.05 vs no treatment control.
The activity of an enhancer must be evaluated in the context of its local environment, preferentially in the context of both other enhancers and its native promoter. In the case of the RANKL gene, however, this is clearly not possible due to the numbers and the distant locations of the potential regulatory regions. […] To ensure that the viral TK promoter background was not contributing to our evaluation, the inventors cloned the mouse RANKL promoter (−100 to +65) into pGL3, inserted RL D5 and evaluated its activity in ST2 cells as well.

[2] = system: human D5 region (TK-hRLD5); test: TK-hRLD5 luciferase reporter in MG-63 cells; type: cell-based; settings: 24 hours
Method: FIG. 14. […] Cells were treated with the indicated inducers for the periods identified and isolated RNA subjected to PCR analysis for Cyp24, RANKL and b-actin. […] Two different primer sets to the human D5 region were used to assess VDR binding. […] Luciferase activity was analysed 24 hours later. […] Data are the average of triplicate determinations, SEM.
Approximately 1000 bp of the human RANKL gene comprising D5 was cloned and inserted into a TK-luciferase expression vector (TK-hRLD5). […] The D5 RL region and an additional region immediately upstream in both the mouse and human genes contain elements that mediate the actions of parathyroid hormone, a variety of prostaglandins, cytokines such as oncostatin M and IL-6, as well as IL-1 and others.

C=C1/C(=C\C=C2/CCC[C@]3(C)[C@@H]([C@H](C)CCCC(C)(C)O)CC[C@@H]23)C[C@@H](O)C[C@@H]1O [1,25(OH)2D3]
stimulation via the D5 fragment in MC-3T3-E1 (D5 fragment in MC-3T3-E1): failed to stimulate | Cyp24 induction (Cyp24): induced in a time-dependent manner | osteopontin (OPN) induction (osteopontin (OPN)): induced in a time-dependent manner | RANKL transcripts (RANKL): substantial time-dependent increase | induction mediated by the RL VDRE (mouse RANKL VDRE): 10 to 15 fold | stimulation via the D5 fragment in COS7 cells [1]: failed to stimulate | activity of human D5 region [2]: induces
